Results: patent US12612410B2 (CHILDREN'S HOSPITAL MEDICAL CENTER, priority 2020, dated 2026)
Substitutions are numbered along the chain they refer to.

How the values were obtained:
FLT3 K663Q = biological target: T1, FLT3 K663Q (Homo sapiens, UniProt P36888, K663Q); assay: DiscoverX KINOMEscan competition binding, FLT3 K663Q
T1 construct: host or cells: E. coli BL21-derived host (T7 phage) or HEK-293
T1 sequence (P36888 27-993 K663Q): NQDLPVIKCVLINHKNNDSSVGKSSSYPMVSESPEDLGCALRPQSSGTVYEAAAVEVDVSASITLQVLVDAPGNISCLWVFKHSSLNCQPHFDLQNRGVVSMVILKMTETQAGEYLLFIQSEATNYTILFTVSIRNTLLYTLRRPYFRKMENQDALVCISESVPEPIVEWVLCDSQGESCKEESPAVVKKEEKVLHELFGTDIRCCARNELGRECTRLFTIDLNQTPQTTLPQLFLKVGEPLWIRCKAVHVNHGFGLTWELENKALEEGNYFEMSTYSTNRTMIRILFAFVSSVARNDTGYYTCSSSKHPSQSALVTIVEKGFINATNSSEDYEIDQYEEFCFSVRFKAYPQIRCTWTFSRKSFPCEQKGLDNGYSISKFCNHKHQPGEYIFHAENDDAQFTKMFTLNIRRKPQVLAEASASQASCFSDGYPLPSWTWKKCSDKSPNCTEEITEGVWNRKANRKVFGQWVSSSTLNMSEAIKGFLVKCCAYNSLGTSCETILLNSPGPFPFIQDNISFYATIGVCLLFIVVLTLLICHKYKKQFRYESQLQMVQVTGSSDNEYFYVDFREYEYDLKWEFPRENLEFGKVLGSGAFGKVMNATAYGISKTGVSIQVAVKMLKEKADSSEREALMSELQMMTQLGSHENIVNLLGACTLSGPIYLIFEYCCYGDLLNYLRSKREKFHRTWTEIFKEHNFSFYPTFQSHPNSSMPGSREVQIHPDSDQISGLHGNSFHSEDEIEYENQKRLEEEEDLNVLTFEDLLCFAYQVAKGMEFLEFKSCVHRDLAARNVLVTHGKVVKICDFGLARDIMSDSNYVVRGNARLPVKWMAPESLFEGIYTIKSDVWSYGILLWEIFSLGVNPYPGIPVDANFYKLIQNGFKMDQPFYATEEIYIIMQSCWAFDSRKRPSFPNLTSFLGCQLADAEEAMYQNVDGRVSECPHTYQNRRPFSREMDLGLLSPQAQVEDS
Description: (§1) Kinase binding data were obtained for various exemplary compounds prepared according to Examples 1-24 using the DiscoverX KINOMVIEscan® active site-directed competition binding site-directed assay protocol described below. […] As a result, the data report thermodynamic interaction affinities (Kd values), rather than IC50 values that are dependent on ATP concentrations. The assay uses a DNA-tagged version of the protein kinase, and an immobilized ligand bound to a solid support. Compounds that directly or indirectly prevent kinase binding to the immobilized ligand reduce the amount of kinase captured on the solid support, which is detected using an ultra-sensitive qPCR method. Affinity constants reported from the assay have been reported to be independent of the immobilized ligand used that is coupled to the solid support (See supplemental information in Fabian, M. A. et. al., (2005) Nat. Biotechnol. 23, 329-336; Wodicka, L. M. et. al., (2010) Chem. Biol. 17, 1241-1249.)
(§2) Kinase-tagged T7 phage strains were prepared in an E. coli host derived from the BL21 strain. E. coli were grown to log-phase and infected with T7 phage and incubated with shaking at 32° C. until lysis. The lysates were centrifuged and filtered to remove cell debris. The remaining kinases were produced in HEK-293 cells and subsequently tagged with DNA for qPCR detection. Streptavidin-coated magnetic beads were treated with biotinylated small molecule ligands for 30 minutes at room temperature to generate affinity resins for kinase assays. The liganded beads were blocked with excess biotin and washed with blocking buffer (SeaBlock (Pierce), 1% BSA, 0.05% Tween 20, 1 mM DTT) to remove unbound ligand and to reduce non-specific binding. Binding reactions were assembled by combining kinases, liganded affinity beads, and test compounds in 1× binding buffer (20% SeaBlock, 0.17×PBS, 0.05% Tween 20, 6 mM DTT). Test compounds were prepared as 111× stocks in 100% DMSO. Kds were determined using an 11-point 3-fold compound dilution series with three DMSO control points. All compounds for Kd measurements are distributed by acoustic transfer (non-contact dispensing) in 100% DMSO. The compounds were then diluted directly into the assays such that the final concentration of DMSO was 0.9%. All reactions were performed in polypropylene 384-well plates. Each was a final volume of 0.02 mL. The assay plates were incubated at room temperature with shaking for 1 hour and the affinity beads were washed with wash buffer (1×PBS, 0.05% Tween 20). The beads were then re-suspended in elution buffer (1×PBS, 0.05% Tween 20, 0.5 μM nonbiotinylated affinity ligand) and incubated at room temperature with shaking for 30 minutes. The kinase concentration in the eluates was measured by qPCR.
(§3) Binding constants (Kds) were calculated with a standard dose-response curve using the Hill equation. The Hill Slope was set to −1. Curves were fitted using a non-linear least square fit with the Levenberg-Marquardt algorithm.

FLT3 N841I = biological target: T2, FLT3 N841I (Homo sapiens, UniProt P36888, N841I); assay: DiscoverX KINOMEscan competition binding, FLT3 N841I
T2 construct: host or cells: E. coli BL21-derived host (T7 phage) or HEK-293
T2 sequence (P36888 27-993 N841I): T1 sequence (P36888 27-993 K663Q) with Q637K, N815I
Description: as §1, §2, §3

| SMILES | Kd (FLT3 K663Q) [nM] | Kd (FLT3 N841I) [nM] |
| --- | --- | --- |
| FC(F)c1cn2c(-c3cccc(N[C@H]4CNC[C@@H]4F)n3)cnc2cn1 [Compound 16, 6-(6-(difluoromethyl)imidazo[1,2-a]pyrazin-3-yl)-N-((3S,4S)-4-fluoropyrrolidin-3-yl)pyridin-2-amine] | 1.4 | 0.65 |
| F[C@H]1CNC[C@@H]1Nc1cccc(-c2cnc3cnc(C4CC4)cn23)n1 [Compound 50, 6-(6-cyclopropylimidazo[1,2-a]pyrazin-3-yl)-N-((3S,4S)-4-fluoropyrrolidin-3-yl)pyridin-2-amine] | 0.39 | 0.25 |
| CC1(c2cn3c(-c4cccc(N[C@H]5CNCC56CC6)n4)cnc3cn2)CC1 [Compound 5, (R)-N-(6-(6-(1-methylcyclopropyl)imidazo[1,2-a]pyrazin-3-yl)pyridin-2-yl)-5-azaspiro[2.4]heptan-7-amine] | 0.18 | 0.091 |
| FC(F)c1cn2c(-c3cccc(N[C@H]4CNCC[C@@H]4F)n3)cnc2cn1 [Compound 25, 6-(6-(difluoromethyl)imidazo[1,2-a]pyrazin-3-yl)-N-((3S,4S)-4-fluoropiperidin-3-yl)pyridin-2-amine] | 0.59 | 0.27 |
| CC1(c2cn3c(-c4cccc(N[C@@H]5CCNC5)n4)cnc3cn2)CC1 [Compound 3, (R)-6-(6-(1-methylcyclopropyl)imidazo[1,2-a]pyrazin-3-yl)-N-(pyrrolidin-3-yl)pyridin-2-amine] | 0.22 | 0.12 |
| Cn1cc(-c2cn3c(-c4cccc(N[C@H]5CNC[C@@H]5F)n4)cnc3cn2)cn1 [Compound 52, N-((3S,4S)-4-fluoropyrrolidin-3-yl)-6-(6-(1-methyl-1H-pyrazol-4-yl)imidazo[1,2-a]pyrazin-3-yl)pyridin-2-amine] | 0.82 | 0.24 |
| CC(C)(O)c1cn2c(-c3cccc(N[C@H]4CNCC[C@@H]4F)n3)cnc2cn1 [Compound 31, 2-(3-(6-(((3S,4S)-4-fluoropiperidin-3-yl)amino)pyridin-2-yl)imidazo[1,2-a]pyrazin-6-yl)propan-2-ol] | 2.4 | 2.1 |
| CC(C)(O)c1cn2c(-c3cccc(N[C@@H]4CCCNC4)n3)cnc2cn1 [Compound 30, (R)-2-(3-(6-(piperidin-3-ylamino)pyridin-2-yl)imidazo[1,2-a]pyrazin-6-yl)propan-2-ol] | 0.83 | 3.5 |
| FC(F)(F)C1(c2cn3c(-c4cccc(N[C@@H]5CCNC5)n4)cnc3cn2)CC1 [Compound 10, (R)-N-(pyrrolidin-3-yl)-6-(6-(1-(trifluoromethyl)cyclopropyl)imidazo[1,2-a]pyrazin-3-yl)pyridin-2-amine] | 0.45 | 0.29 |
| CC1(c2cn3c(-c4cccc(N[C@H]5CNC[C@@H]5F)n4)cnc3cn2)CC1 [Compound 1, N-((3S,4S)-4-fluoropyrrolidin-3-yl)-6-(6-(1-methylcyclopropyl)imidazo[1,2-a]pyrazin-3-yl)pyridin-2-amine] | 0.24 | 0.12 |
| FC(F)(F)COc1cn2c(-c3cccc(N[C@@H]4CCNC4)n3)cnc2cn1 [Compound 38, (R)-N-(pyrrolidin-3-yl)-6-(6-(2,2,2-trifluoroethoxy)imidazo[1,2-a]pyrazin-3-yl)pyridin-2-amine] | 2.3 | 0.52 |
